In one data set the test system is SW620 Yap KO cells. Nature of the data set: Viability assay in SW620 Yap KO (Yap independent) cells, CyQuant. It is filed as cell-based. The note with it: Homo sapiens, SW-620, 96 h, n.d. = value not detectable below threshold given in parentheses. The method, boiled down: (§1)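 Seeded cells were dosed 24 h later in duplicate (10-point, 1:3 dilutions, top 30 μM final, 0.3% DMSO) and incubated 96 h at 37 °C. Viability was read with CyQUANT DNA dye after 1 h, fluorescence bottom read. NCI-H226 in RPMI 1640 medium; SW620 YAP/TAZ CRISPR knockout in DMEM/F-12 medium.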

The test system of a further data set is YAP-TEAD interaction. Kind of data set: SK-HEP-1 reporter assay (8xTEAD responsive elements driving NanoLuc luciferase). In kind it is cell-based. The note with it: Homo sapiens, SK-HEP1, SK-HEP-1 reporter assay. Put shortly: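 Reporter read-out: NanoLuc luminescence from 8×TEAD elements stably integrated in SK-HEP-1 cells, after 24 h compound exposure at 37° C. Ten concentrations tested in duplicate, top 30 μM final, 0.3% DMSO; IC50 from curve.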

Another data set deals with NCI-H226 cells. Kind of data set: Viability assay in NCI-H226 (Yap-dependent) cells, CyQuant. As to conditions: Homo sapiens, NCI-H226, 96 h, class symbols. In kind it is cell-based, human. Put shortly:
as §1

For `CCOc1ccc(-n2c3ccc(C(=O)O)cc3c3cn(C)nc32)cc1` [Example 15, 8-(4-Ethoxyphenyl)-2-methyl-2H,8H-pyrazolo[3,4-b]indole-5-carboxylic acid], the melting point lay within 179 to 181 °C.

Compound `COC(=O)c1ccc2c(c1)c1nn(C)cc1n2-c1ccc(C(F)(F)F)cc1` [Example 16, Methyl 2-methyl-4-[4-(trifluoromethyl)phenyl]pyrazolo[4,3-b]indole-7-carboxylate] displayed a melting point of 111 to 112 °C.

As for `Cn1cc2c(n1)c1cc(C#N)ccc1n2-c1ccc(C(F)(F)F)cc1` [Example 19, 2-methyl-4-[4-(trifluoromethyl)phenyl]pyrazolo [4,3-b]indole-7-carbonitrile], the melting point was 208 to 210 °C.

On to `Cn1cnc2c1c1cc(C3CC(Cl)=NO3)ccc1n2-c1ccc(C(F)(F)F)cc1` (stereo not drawn) [Example C198, 3-chloro-5-{1-methyl-4-[4-(trifluoromethyl)phenyl]-1H,4H-imidazo[4,5-b]indol-7-yl}-4,5-dihydro-1,2-oxazole], for which the IC50 was over 3000 nM in the data set on SW620 Yap KO cells, 10 to 100 nM in the data set with YAP-TEAD interaction (class symbols) and 1 to 100 nM with NCI-H226 cells.

Turning to `Cn1cc2c3cc(C(=O)NCc4ccncc4)ccc3n(C3CC4(C3)CC(F)(F)C4)c2n1` [Example C208, 8-{6,6-difluorospiro[3.3]heptan-2-yl}-2-methyl-N-[(pyridin-4-yl)methyl]-2H,8H-pyrazolo [3,4-b]indole-5-carboxamide], the IC50 is over 30000 nM with SW620 Yap KO cells, 10 to 100 nM with YAP-TEAD interaction (class symbols) and 100 to 1000 nM in the data set with NCI-H226 cells.

Turning to `Cn1cc2c3cc(C(=O)NCc4ccncc4)ccc3n(-c3ccc(C(F)F)cc3)c2n1` [Example C209, 8-[4-(difluoromethyl)phenyl]-2-methyl-N-[(pyridin-4-yl)methyl]-2H,8H-pyrazolo[3,4-b]indole-5-carboxamide], the IC50 with SW620 Yap KO cells was over 30000 nM; in the data set on YAP-TEAD interaction (class symbols) it was 10 to 100 nM; in the data set with NCI-H226 cells, 100 to 1000 nM.

As for `Cn1cc2c3cc(C(=O)N=S(=O)(CCO)Cc4ccncc4)ccc3n(-c3ccc(C(F)(F)F)cc3)c2n1` (stereo not drawn) [Example C216, N-[(2-hydroxyethyl)(oxo)[(pyridin-4-yl)methyl]-λ^6-sulfanylidene]-2-methyl-8-[4-(trifluoromethyl)phenyl]-2H,8H-pyrazolo[3,4-b]indole-5-carboxamide], the IC50 in the data set with SW620 Yap KO cells is over 3000 nM; with YAP-TEAD interaction (n.d. = value not detectable below threshold given in parentheses), over 9500 nM; with NCI-H226 cells it was 1 to 100 nM.

Take `Cc1cc(C(CO)NC(=O)c2ccc3c(c2)c2cn(C)nc2n3-c2ccc(C(F)(F)F)cc2)ccn1` (stereo not drawn) [Example C219, N-[2-hydroxy-1-(2-methylpyridin-4-yl)ethyl]-2-methyl-8-[4-(trifluoromethyl)phenyl]-2H,8H-pyrazolo[3,4-b]indole-5-carboxamide]: the IC50 is over 3000 nM with SW620 Yap KO cells, 10 to 100 nM in the data set with YAP-TEAD interaction (class symbols) and 100 to 1000 nM in the data set with NCI-H226 cells.

With `Cc1cc(C(CO)NC(=O)c2ccc3c(c2)c2nn(C)nc2n3-c2ccc(C(F)(F)F)cc2)ccn1` (stereo not drawn) [Example C220, N-[2-hydroxy-1-(2-methylpyridin-4-yl)ethyl]-2-methyl-4-[4-(trifluoromethyl)phenyl]-2H,4H-[1,2,3]triazolo[4,5-b]indole-7-carboxamide], the figures for the IC50 with SW620 Yap KO cells, in the data set on YAP-TEAD interaction (class symbols) and in the data set on NCI-H226 cells were over 3000 nM, 10 to 100 nM and 1 to 100 nM, respectively.

Take `Cn1cc2c3cc(C(=O)NC(CCO)c4ccccn4)ccc3n(-c3ccc(C(F)(F)F)cc3)c2n1` (stereo not drawn) [Example C225, N-[3-hydroxy-1-(pyridin-2-yl)propyl]-2-methyl-8-[4-(trifluoromethyl)phenyl]-2H,8H-pyrazolo[3,4-b]indole-5-carboxamide]: the IC50 in the data set on SW620 Yap KO cells was over 30000 nM; in the data set with YAP-TEAD interaction (class symbols), 10 to 100 nM; in the data set with NCI-H226 cells, 1 to 100 nM.

As for `Cn1nc2c3cc(C(=O)NC(CCO)c4ccccn4)ccc3n(-c3ccc(C(F)(F)F)cc3)c2n1` (stereo not drawn) [Example C226, N-[3-hydroxy-1-(pyridin-2-yl)propyl]-2-methyl-4-[4-(trifluoromethyl)phenyl]-2H,4H-[1,2,3]triazolo[4,5-b]indole-7-carboxamide], the IC50 was over 3000 nM in the data set with SW620 Yap KO cells, 10 to 100 nM in the data set with YAP-TEAD interaction (class symbols) and 1 to 100 nM in the data set with NCI-H226 cells.

In the case of `CNC(=O)c1cnc2c(c1)c1cn(C)nc1n2-c1ccc(C(F)(F)F)cc1` [Example C227, N,4-dimethyl-7-[4-(trifluoromethyl)-phenyl]-4,5,7,9-tetraazatricyclo [6.4.0.0^2,6]dodeca-1(8),2,5,9,11-pentaene-11-carboxamide], the IC50 in the data set on SW620 Yap KO cells was over 30000 nM; in the data set with YAP-TEAD interaction (class symbols), 10 to 100 nM; in the data set on NCI-H226 cells, 1 to 100 nM.

Turning to `C[C@H](CO)NC(=O)c1ccc2c(c1)c1cn(C)nc1n2-c1ccc(C(F)F)cc1` [Example C247, 8-[4-(difluoromethyl)phenyl]-N-[(2R)-1-hydroxypropan-2-yl]-2-methyl-2H,8H-pyrazolo[3,4-b]indole-5-carboxamide], the IC50 with SW620 Yap KO cells was over 30000 nM; with YAP-TEAD interaction (class symbols), 10 to 100 nM; in the data set on NCI-H226 cells, 1 to 100 nM.

As to `Cn1cc2c3cc(C(=O)N[C@@H](CO)c4ccccn4)ccc3n(-c3ccc(C(F)F)cc3)c2n1` [Example C248, 8-[4-(difluoromethyl)phenyl]-N-[(1R)-2-hydroxy-1-(pyridin-2-yl)ethyl]-2-methyl-2H,8H-pyrazolo[3,4-b]indole-5-carboxamide], the figures for the IC50 in the data set on SW620 Yap KO cells, in the data set on YAP-TEAD interaction (class symbols) and with NCI-H226 cells were over 30000 nM, 10 to 100 nM and 1 to 100 nM, respectively.

`Cn1nc2c3cc(C(=O)N[C@H](CO)c4ccccn4)ccc3n(-c3ccc(C(F)(F)F)cc3)c2n1` [Example C249, N-[(1S)-2-hydroxy-1-(pyridin-2-yl)ethyl]-2-methyl-4-[4-(trifluoromethyl)phenyl]-2H,4H-[1,2,3]triazolo[4,5-b]indole-7-carboxamide]: the IC50 in the data set on SW620 Yap KO cells was over 30000 nM; in the data set on YAP-TEAD interaction (class symbols), 10 to 100 nM; in the data set with NCI-H226 cells, 100 to 1000 nM.

In the case of `C[C@@H](NC(=O)c1ccc2c(c1)c1cn(C)nc1n2-c1ccc(C(F)(F)F)cc1)c1ccc(N)nc1` [Example C257, N-[(1R)-1-(6-aminopyridin-3-yl)ethyl]-2-methyl-8-[4-(trifluoromethyl)phenyl]-2H,8H-pyrazolo[3,4-b]indole-5-carboxamide], the IC50 with SW620 Yap KO cells is over 30000 nM; in the data set on YAP-TEAD interaction (class symbols), 100 to 10000 nM; in the data set on NCI-H226 cells it was 1 to 100 nM.

With `Cn1ccc(C(CO)NC(=O)c2ccc3c(c2)c2cn(C)nc2n3-c2ccc(C(F)(F)F)cc2)n1` (stereo not drawn) [Example C260, N-[2-hydroxy-1-(1-methyl-1H-pyrazol-3-yl)ethyl]-2-methyl-8-[4-(trifluoromethyl)phenyl]-2H,8H-pyrazolo[3,4-b]indole-5-carboxamide], the IC50 was over 30000 nM in the data set with SW620 Yap KO cells, 10 to 100 nM in the data set with YAP-TEAD interaction (class symbols) and 1 to 100 nM in the data set with NCI-H226 cells.

Regarding `Cn1nc2c3cc(C(=O)N=S4(=O)CCNCC4)ccc3n(-c3ccc(C(F)(F)F)cc3)c2n1` [Example C261, 2-methyl-N-(1-oxo-1lambda6-thiomorpholin-1-ylidene)-4-[4-(trifluoromethyl)phenyl]-2H,4H-[1,2,3]triazolo[4,5-b]indole-7-carboxamide], the IC50 is over 30000 nM in the data set with SW620 Yap KO cells, 10 to 100 nM in the data set with YAP-TEAD interaction (class symbols) and 1 to 100 nM in the data set on NCI-H226 cells.

For `Cn1cc2c3cc(C(=O)NC(CO)c4cscn4)ccc3n(-c3ccc(C(F)(F)F)cc3)c2n1` (stereo not drawn) [Example C277, N-[2-hydroxy-1-(1,3-thiazol-4-yl)ethyl]-2-methyl-8-[4-(trifluoromethyl)phenyl]-2H,8H-pyrazolo[3,4-b]indole-5-carboxamide], the IC50 in the data set with SW620 Yap KO cells was over 30000 nM; with YAP-TEAD interaction (class symbols), 10 to 100 nM; with NCI-H226 cells, 1 to 100 nM.
